Results reported in article PMC4608732, “Phosphorylation and Internalization of Lysophosphatidic Acid Receptors LPA1, LPA2, and LPA3” (PLoS ONE, 2015).
Blank lines part the entries; values can stand above or below the compound they belong to.

Legend:
wild-type C9 cells = experiment: Intracellular calcium concentration response to LPA, wild type C9 cells; assay type: cell-based, rat
Procedure: (§1) C9 cells (Clone 9, rat hepatic epithelial cells, CRL-1439™), obtained directly from American Type Culture Collection, were cultured in Ham’s F12 Kaighn’s modification medium supplemented with 10% fetal bovine serum, 100 μg/ml streptomycin, 100 units/ml penicillin and 0.25 μg/ml amphotericin B at 37°C under a 95% air and 5% CO2 atmosphere, as described previously. The medium was replaced with one containing 1% fetal bovine serum, 12–16 h before the experiment. C9 cells stably expressing the mouse LPA1 receptor fused at the carboxyl termini with eGFP were those previously described. […] As depicted in”Fig A in S1 File”, expression of LPA1 and LPA2 receptors was similar (~80%) whereas that of LPA3 was consistently lower (~60%), as evidenced by fluorescence imaging and flow cytometry. Flow cytometry was performed using an Attune NxT Acoustic Focusing Cytometer, employing excitation of 488 nm; data were analyzed using the Attune cytometric software included with the equipment.
(§2) This procedure has been described previously. […] Determinations were carried in an AMINCO-Bowman Series 2 luminescence spectrometer, employing 340 and 380 nm excitation wavelengths and an emission wavelength of 510 nm; chopper interval was 0.5 sec. The intracellular calcium concentration was calculated as described by Grynkiewicz et al.. […]

LPA1 receptor [1] = biological target: T1, LPA1 receptor (Mus musculus, UniProt P61793); experiment: Intracellular calcium concentration response to LPA, C9 cells overexpressing LPA1; assay type: cell-based
T1 construct: expressed in transfected cells
T1 sequence (P61793 whole entry): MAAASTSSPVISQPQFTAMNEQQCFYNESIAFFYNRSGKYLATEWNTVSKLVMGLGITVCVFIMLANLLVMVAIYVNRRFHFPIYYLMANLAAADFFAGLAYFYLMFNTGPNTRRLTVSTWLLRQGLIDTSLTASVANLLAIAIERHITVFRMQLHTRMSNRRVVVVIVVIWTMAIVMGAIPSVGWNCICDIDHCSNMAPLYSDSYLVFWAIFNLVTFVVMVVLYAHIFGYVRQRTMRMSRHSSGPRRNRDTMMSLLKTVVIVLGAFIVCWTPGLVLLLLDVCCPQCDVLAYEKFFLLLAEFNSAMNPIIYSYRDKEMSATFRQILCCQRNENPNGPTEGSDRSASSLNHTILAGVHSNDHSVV
Procedure: as §1, §2

LPA2 receptor [2] = biological target: T2, LPA2 receptor (Homo sapiens, UniProt Q9HBW0); experiment: Intracellular calcium concentration response to LPA, C9 cells overexpressing LPA2; assay type: cell-based
T2 sequence (Q9HBW0 whole entry): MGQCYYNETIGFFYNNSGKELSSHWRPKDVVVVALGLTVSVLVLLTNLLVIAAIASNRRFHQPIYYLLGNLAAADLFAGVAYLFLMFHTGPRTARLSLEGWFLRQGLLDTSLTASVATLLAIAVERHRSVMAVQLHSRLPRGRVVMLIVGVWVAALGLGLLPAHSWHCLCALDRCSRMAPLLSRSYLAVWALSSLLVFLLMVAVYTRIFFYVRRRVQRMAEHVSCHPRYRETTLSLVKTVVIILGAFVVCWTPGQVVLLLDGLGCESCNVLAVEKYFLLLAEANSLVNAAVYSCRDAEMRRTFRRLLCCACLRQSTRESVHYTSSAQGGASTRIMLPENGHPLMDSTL
Procedure: as §1, §2

LPA3 receptor [3] = biological target: T3, LPA3 receptor (Homo sapiens, UniProt Q9UBY5); experiment: Intracellular calcium concentration response to LPA, C9 cells overexpressing LPA3; assay type: cell-based; settings: cells over-expressing LPA3
T3 sequence (Q9UBY5 1-353): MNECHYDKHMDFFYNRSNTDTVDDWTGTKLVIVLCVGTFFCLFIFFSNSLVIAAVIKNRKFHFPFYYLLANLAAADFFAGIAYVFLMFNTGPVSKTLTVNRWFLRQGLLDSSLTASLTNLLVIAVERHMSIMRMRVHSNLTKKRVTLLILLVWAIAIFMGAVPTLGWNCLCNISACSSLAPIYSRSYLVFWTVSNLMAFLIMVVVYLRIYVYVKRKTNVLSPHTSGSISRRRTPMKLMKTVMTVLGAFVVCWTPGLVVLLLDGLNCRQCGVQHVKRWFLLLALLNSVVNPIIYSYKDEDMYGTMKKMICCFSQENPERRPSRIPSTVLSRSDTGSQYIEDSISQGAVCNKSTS

LPA1 receptor [4] = biological target: T1, LPA1 receptor; experiment: Heterologous (PMA) / homologous (LPA) desensitization of LPA-induced calcium response, LPA1 cells; assay type: cell-based; settings: preincubation 10 min, washed, challenge 1 μM LPA, LPA1 cells
Procedure: (§3) This procedure has been described previously. Briefly, cells were loaded with 2.5 μM Fura-2 AM in Krebs–Ringer–Hepes containing 0.05% bovine serum albumin (pH 7.4) for 1 h at 37°C and then washed to eliminate unincorporated indicator. Determinations were carried in an AMINCO-Bowman Series 2 luminescence spectrometer, employing 340 and 380 nm excitation wavelengths and an emission wavelength of 510 nm; chopper interval was 0.5 sec. The intracellular calcium concentration was calculated as described by Grynkiewicz et al.. In the experiments where prolonged incubation was required (resensitization studies), cells were stimulated, washed, and the incubation was continued in the presence of Fura-2 AM, to avoid dye depletion.
(§4) Agonists-mediated decreases occurred in a concentration-dependent fashion, with a maximum at the concentration of ~ 100 nM. […] It is worth noticing that the shift in the curves was more pronounced in LPA1- or LPA3-expressing cells, than in those that expressed the LPA2 subtype.
(§5) Plotted are the increases in calcium as the percentage of that obtained in cells preincubated without any agent as mean ± S. E. M. of 6 experiments using different cell preparations.

LPA2 receptor [5] = biological target: T2, LPA2 receptor; experiment: Heterologous (PMA) / homologous (LPA) desensitization of LPA-induced calcium response, LPA2 cells; assay type: cell-based; settings: preincubation 10 min, washed, challenge 1 μM LPA, LPA2 cells
Procedure: as §3, §4, §5

LPA3 receptor [6] = biological target: T3, LPA3 receptor; experiment: Heterologous (PMA) / homologous (LPA) desensitization of LPA-induced calcium response, LPA3 cells; assay type: cell-based; settings: preincubation 10 min, washed, challenge 1 μM LPA, LPA3 cells
Procedure: as §3, §4, §5

LPA1 receptor [7] = biological target: T1, LPA1 receptor; experiment: LPA1 receptor phosphorylation ([32P]Pi labeling, immunoprecipitation); assay type: cell-based
Procedure: (§6) The procedure was very similar to that previously described to study LPA1 receptor phosphorylation. In brief, cells were incubated in phosphate-free Dulbecco’s modified Eagle’s medium containing 100 μCi/ml [^32P]Pi for 3 h at 37°C. LPA1- and LPA2-expressing cells were cultured in 6 well plates, whereas those expressing LPA3 receptors were cultured in 10 cm dishes. Labeled cells were stimulated with the agents tested and then washed twice with ice-cold phosphate buffered saline and solubilized in buffer containing 10 mM Tris, 150 mM NaCl, 1% sodium cholate, 1% Nonident P40, protease and phosphatase inhibitors, pH 7.4 [11, 12, 14]. The lysates were incubated overnight with protein A-agarose and anti-GFP serum with constant agitation at 4°C. Samples were washed and the pellets containing the immunocomplexes were solubilized in Laemmli’s sample buffer containing 5% β-mercaptoethanol. Proteins were separated using 10% SDS-PAGE and electrotransferred onto polyvinyliden fluoride membranes. Receptor phosphorylation was analyzed with a Molecular Dynamics Typhoon PhosphorImager and the ImageJ software (http://rsb.info.nih.gov/ij/).

LPA2 receptor [8] = biological target: T2, LPA2 receptor; experiment: LPA2 receptor phosphorylation ([32P]Pi labeling, immunoprecipitation); assay type: cell-based
Procedure: as §6

LPA3 receptor [9] = biological target: T3, LPA3 receptor; experiment: LPA3 receptor phosphorylation ([32P]Pi labeling, immunoprecipitation); assay type: cell-based
ERK 1/2 = ERK 1/2 phosphorylation (Western blotting) in C9 cells overexpressing LPA1-3; assay type: cell-based, rat; settings: for increase in ERK phosphorylation: 5 min, cells overexpressing LPA1-3
Procedure: Cells were cultured to near confluence in 6 well plates and stimulated with the agents tested for the times indicated. Total cellular extracts were obtained by lysing the cells in Laemmli’s sample buffer containing 5% β-mercaptoethanol. The cell extracts were subject to 10% SDS-PAGE and transferred to nitrocellulose membranes. Membranes from samples obtained in parallel were incubated overnight at 4°C, with anti-pERK 1/2 (1:2000) or anti ERK 1/2 (1:2000). The membranes were washed and incubated for 1 h at room temperature with a horseradish peroxidase-conjugated secondary antibody (1:10,000) for enhanced chemiluminescence detection.

LPA1 receptor [10] = biological target: T1, LPA1 receptor; experiment: LPA1 receptor internalization, confocal imaging; assay type: cell-based; settings: LPA1 cells
Procedure: (§7) Cells were seeded at approximately 30% confluence onto glass-bottomed Petri dishes and cultured for 3 h at 37°C in media containing 1% serum. After treatment, cells were washed three times with phosphate buffered saline and fixed with 4% paraformaldehyde in 0.1 M phosphate buffer for 20 min at room temperature; samples were then washed three additional times with phosphate buffered saline. The fluorescent images were acquired with an Olympus Fluoview FV10 confocal microscope with a water-immersion objective (60X). To determine receptor internalization, the plasma membrane was delineated utilizing the differential interference contrast imaging, and fluorescence in this region was quantified employing the ImageJ software. At least 5 or 6 images of different cultures were taken for each condition. Data were normalized as follows: for each experiment, fluorescence (arbitrary units) at the plasma membrane of baseline samples were pooled and the average was considered as 100%.

LPA2 receptor [11] = biological target: T2, LPA2 receptor; experiment: LPA2 receptor internalization, confocal imaging; assay type: cell-based; settings: LPA2 cells
Procedure: as §7

LPA3 receptor [12] = biological target: T3, LPA3 receptor; experiment: LPA3 receptor internalization, confocal imaging; assay type: cell-based; settings: LPA3 cells
Procedure: as §7

[13] = 1 μM LPA 10 min, washed, incubated to 60 or 120 min

- EC50 (wild-type C9 cells; read-out: EC50, increase in intracellular calcium concentration): 0.2 to 0.4 µM
- EC50 (LPA1 receptor [1]; LPA1-overexpressing cells, read-out: EC50, increase in intracellular calcium concentration): 0.2 to 0.4 µM
- calcium response (increase of the cation's concentration) (LPA1 receptor [1]; cells over-expressing LPA1): 450 to 600 nM
- calcium response (increase of the cation's concentration) (LPA2 receptor [2]; cells over-expressing LPA2): 450 to 600 nM
- calcium response (increase of the cation's concentration) (LPA3 receptor [3]): ~ 300 nM
- time to maximum receptor phosphorylation (LPA1 receptor [7]; 1 μM agent, LPA1 cells): ≤ 15 min
- concentration at which receptor phosphorylation saturates (LPA1 receptor [7]; 15 min incubation, LPA1-overexpressing cells): ~ 1 μM
- EC50 (LPA1 receptor [7]; 15 min incubation, LPA1-overexpressing cells, read-out: EC50, receptor phosphorylation): 0.01 to 0.03 µM
- time to maximum receptor phosphorylation (LPA2 receptor [8]; 1 μM agent, LPA2 cells): ≤ 15 min
- concentration-response curve, receptor phosphorylation (LPA2 receptor [8]; 15 min incubation, LPA2-overexpressing cells, shift to higher concentrations): no clear saturation was obtained
- time to maximum receptor phosphorylation (LPA3 receptor [9]; 1 μM agent, LPA3 cells): ≤ 15 min
- concentration at which receptor phosphorylation saturates (LPA3 receptor [9]; 15 min incubation, LPA3-overexpressing cells): ~ 1 μM
- recovery of fluorescence at the membrane level after washing (LPA1 receptor [10]; [13]): recovered rapidly and completely
- recovery of fluorescence at the membrane level after washing (LPA2 receptor [11]; [13]): slowly
- receptor internalization (decrease in fluorescence at the plasma membrane, compared with other subtypes) (LPA2 receptor [11]; 1 μM agent, 30 or 60 min): much less intense
- recovery of fluorescence at the membrane level after washing (LPA3 receptor [12]; [13]): only partially and also slowly
Compound: CCCCCCCC/C=C\CCCCCCCC(=O)OC[C@@H](O)COP(=O)(O)O [LPA]
- maximal calcium concentration increase (wild-type C9 cells): 150 to 200 nM
- LPA concentration response curve, intracellular calcium (LPA2 receptor [2]; LPA2-overexpressing cells, curve shifted to the right): no clear saturation was achieved at the concentrations tested
- concentration giving maximum homologous desensitization (LPA1 receptor [4]): ~ 100 nM
- concentration giving maximum homologous desensitization (LPA2 receptor [5]): ~ 100 nM
- concentration giving maximum homologous desensitization (LPA3 receptor [6]): ~ 100 nM
- increase in ERK phosphorylation (ERK 1/2; 1 μM LPA): ~ 2 fold
- receptor internalization (fluorescence at the plasma membrane) (LPA1 receptor [10]; 1 μM agent, 30 or 60 min): markedly decreasing fluorescence at the plasma membrane level
- receptor internalization (fluorescence at the plasma membrane) (LPA3 receptor [12]; 1 μM agent, 30 or 60 min): markedly decreasing fluorescence at the plasma membrane level

Compound: EGF: epidermal growth factor, obtained from Preprotech (NSDSECPLSHDGYCLHDGVCMYIEALDKYACNCVVGYIGERCQYRDLKWWELR; UniProt P01133 971-1023, looked up)
- increase in ERK phosphorylation (ERK 1/2; 100 ng/ml EGF): ~ 4 fold

- effect on LPA-induced receptor phosphorylation (LPA1 receptor [7]; 10 μM AG1478 30 min, then 1 μM LPA 15 min, LPA1 cells): markedly reduced (but did not abolish)
- effect on LPA-induced receptor phosphorylation (LPA2 receptor [8]; 10 μM AG1478 30 min, then 1 μM LPA 15 min, LPA2 cells): markedly reduced (but did not abolish)
- effect on LPA-induced receptor phosphorylation (LPA3 receptor [9]; 10 μM AG1478 30 min, then 1 μM LPA 15 min, LPA3 cells): markedly reduced (but did not abolish)
Compound: COc1cc2ncnc(Nc3cccc(Cl)c3)c2cc1OC [AG1478]
- effect on baseline phospho-ERK signal (ERK 1/2; 10 μM AG1478 30 min, cells expressing LPA1 receptors): did not alter it
- effect on baseline phospho-ERK signal (ERK 1/2; 10 μM AG1478 30 min, cells overexpressing LPA2, statistically insignificant): decrease it
- effect on baseline phospho-ERK signal (ERK 1/2; 10 μM AG1478 30 min, cells overexpressing LPA3, statistically significant): decrease it
- effect on LPA- and EGF-induced ERK phosphorylation (ERK 1/2; 10 μM AG1478 30 min, then 1 μM LPA or 100 ng/ml EGF 5 min): clearly diminished the effect of both growth factors
